What was measured:
[1] = xn = mol fraction of the nth substance listed; details: 101 kPa, Liquid
[2] = 101.33 kPa, Liquid

CN1CCN(C)C1=O [1,3-dimethyl-2-imidazolidinone] + CCCCO
mass density [kg/m3], [1]
Details | x1 = 0.09992 | x1 = 0.2 | x1 = 0.3 | x1 = 0.4002 | x1 = 0.5 | x1 = 0.6 | x1 = 0.7002 | x1 = 0.7999 | x1 = 0.9001
283.15 K | 846.49 | 874.68 | 901.72 | 927.79 | 952.85 | 976.95 | 1000.25 | 1022.61 | 1044.18
298.15 K | 834.78 | 862.67 | 889.49 | 915.33 | 940.22 | 964.19 | 987.34 | 1009.57 | 1031.03
313.15 K | 822.87 | 850.54 | 877.11 | 902.78 | 927.48 | 951.32 | 974.35 | 996.45 | 1017.84

CN1CCN(C)C1=O [1,3-dimethyl-2-imidazolidinone] + CCCO
mass density [kg/m3], [1]
Details | x1 = 0.09998 | x1 = 0.2 | x1 = 0.2999 | x1 = 0.4001 | x1 = 0.4998 | x1 = 0.6001 | x1 = 0.7 | x1 = 0.7999 | x1 = 0.9
283.15 K | 847.83 | 880.77 | 910.83 | 938.4 | 963.7 | 987.2 | 1008.86 | 1028.91 | 1047.62
298.15 K | 835.55 | 868.25 | 898.06 | 925.54 | 950.74 | 974.16 | 995.74 | 1015.73 | 1034.43
313.15 K | 823.05 | 855.56 | 885.22 | 912.63 | 937.7 | 961.08 | 982.62 | 1002.67 | 1021.31

CN1CCN(C)C1=O [1,3-dimethyl-2-imidazolidinone] + CCO
mass density [kg/m3], [1]
Details | x1 = 0.09998 | x1 = 0.2 | x1 = 0.3001 | x1 = 0.3999 | x1 = 0.4996 | x1 = 0.6002 | x1 = 0.6999 | x1 = 0.8 | x1 = 0.8994
283.15 K | 846.13 | 886.41 | 920.6 | 949.96 | 975.63 | 998.13 | 1017.79 | 1035.31 | 1050.79
298.15 K | 833.1 | 873.26 | 907.41 | 936.72 | 962.36 | 984.83 | 1004.56 | 1022.19 | 1037.59
313.15 K | 819.85 | 859.85 | 893.96 | 923.29 | 948.92 | 971.48 | 991.29 | 1008.94 | 1024.41

CN1CCN(C)C1=O [1,3-dimethyl-2-imidazolidinone] + CO
mass density [kg/m3], [1]
Details | x1 = 0.09987 | x1 = 0.1999 | x1 = 0.2999 | x1 = 0.4 | x1 = 0.4985 | x1 = 0.6002 | x1 = 0.7001 | x1 = 0.8002 | x1 = 0.9003
283.15 K | 866.6 | 914.65 | 950.88 | 978.91 | 1000.83 | 1019.06 | 1033.62 | 1045.88 | 1056.16
298.15 K | 852.53 | 900.56 | 936.99 | 965.04 | 987.09 | 1005.48 | 1020.04 | 1032.47 | 1042.89
313.15 K | 838.25 | 886.37 | 922.85 | 951.05 | 973.2 | 991.72 | 1006.43 | 1019.04 | 1029.49

CCCCO [butan-1-ol]
[2]
Details | mass density [kg/m3]
283.15 K | 817.18
298.15 K | 805.79
313.15 K | 794.18

CCO [ethanol]
[2]
Details | mass density [kg/m3]
283.15 K | 797.88
298.15 K | 785.13
313.15 K | 772.05

CCCCCCCO [heptan-1-ol]
[2]
Details | mass density [kg/m3]
283.15 K | 829.27
298.15 K | 818.78
313.15 K | 808.11

CCCCCCO [hexan-1-ol]
[2]
Details | mass density [kg/m3]
283.15 K | 826.03
298.15 K | 815.34
313.15 K | 804.46

CO [methanol]
[2]
Details | mass density [kg/m3]
283.15 K | 800.62
298.15 K | 786.56
313.15 K | 772.32

CCCCCCCCO [octan-1-ol]
[2]
Details | mass density [kg/m3]
283.15 K | 832.06
298.15 K | 821.72
313.15 K | 811.21

CCCCCO [pentan-1-ol]
[2]
Details | mass density [kg/m3]
283.15 K | 821.81
298.15 K | 810.88
313.15 K | 799.71

CCCO [propan-1-ol]
[2]
Details | mass density [kg/m3]
283.15 K | 811.54
298.15 K | 799.59
313.15 K | 787.36
